# Assay results: ChEMBL document CHEMBL5608173, “Discovery of novel natural-product-derived mutant isocitrate dehydrogenases 1 inhibitors: Structure-based virtual screening, biological evaluation and structure-activity relationship study” (Eur J Med Chem, 2024)
# How the values were obtained:
# [1] = test system: Isocitrate dehydrogenase [NADP] cytoplasmic (Homo sapiens), O75874 [R132H]; test: Inhibition of recombinant human IDH1 R132H mutant extracted from Escherichia coli BL21 (DE3) cells using alpha-ketoglutarate as substrate at 2 uM incubated for 60 mins in presence of NADPH by absorbance based assay relative to control
# HT-1080 [2] = test: Cell cycle arrest in human HT-1080 cells assessed as S phase cells at 8 uM incubated for 24 hrs by PI staining based flow cytometric analysis (reference value: 18.3 %); type: functional
# [3] = test system: Isocitrate dehydrogenase [NADP] cytoplasmic (Homo sapiens), O75874 [R132C]; test: Inhibition of recombinant human IDH1 R132C mutant extracted from Escherichia coli BL21 (DE3) cells using alpha-ketoglutarate as substrate at 2 uM incubated for 60 mins in presence of NADPH by absorbance based assay relative to control
# [4] = test system: Isocitrate dehydrogenase [NADP] cytoplasmic (Homo sapiens), O75874 [R132C]; test: Inhibition of recombinant human IDH1 R132C mutant extracted from Escherichia coli BL21 (DE3) cells using alpha-ketoglutarate as substrate at 0.2 uM incubated for 60 mins in presence of NADPH by absorbance based assay relative to control
# [5] = target: Isocitrate dehydrogenase [NADP] cytoplasmic (Homo sapiens, UniProt O75874, R132C); test: Inhibition of recombinant human IDH1 R132C mutant extracted from Escherichia coli BL21 (DE3) cells using alpha-ketoglutarate as substrate incubated for 60 mins in presence of NADPH by absorbance based assay
# HT-1080 [6] = test: Antiproliferative activity against human HT-1080 cells harboring IDH1 R132C mutant assessed as reduction in cell viability incubated for 72 hrs by MTT assay; type: functional
# U-87 MG = test: Antiproliferative activity against human U-87 MG cells harboring IDH1 R132H mutant assessed as reduction in cell viability incubated for 72 hrs by MTT assay; type: functional, U-87MG ATCC
# HT-1080 [7] = test: Induction of apoptosis in human HT-1080 cells assessed as viable cells at 2 uM incubated for 48 hrs by Annexin V-FITC/PI staining based flow cytometric analysis (reference value: 96.07 %); type: functional; details: read-out: Activity
# HT-1080 [8] = test: Induction of apoptosis in human HT-1080 cells assessed as early apoptotic cells at 2 uM incubated for 48 hrs by Annexin V-FITC/PI staining based flow cytometric analysis (reference value: 2.33 %); type: functional
# HT-1080 [9] = test: Induction of apoptosis in human HT-1080 cells assessed as late apoptotic cells at 2 uM incubated for 48 hrs by Annexin V-FITC/PI staining based flow cytometric analysis (reference value: 1.15 %); type: functional
# HT-1080 [10] = test: Induction of apoptosis in human HT-1080 cells assessed as necrotic cells at 2 uM incubated for 48 hrs by Annexin V-FITC/PI staining based flow cytometric analysis (reference value: 0.45 %); type: functional
# HT-1080 [11] = test: Induction of apoptosis in human HT-1080 cells assessed as viable cells at 4 uM incubated for 48 hrs by Annexin V-FITC/PI staining based flow cytometric analysis (reference value: 96.07 %); type: functional; details: read-out: Activity
# HT-1080 [12] = test: Induction of apoptosis in human HT-1080 cells assessed as early apoptotic cells at 4 uM incubated for 48 hrs by Annexin V-FITC/PI staining based flow cytometric analysis (reference value: 2.33 %); type: functional
# HT-1080 [13] = test: Induction of apoptosis in human HT-1080 cells assessed as late apoptotic cells at 4 uM incubated for 48 hrs by Annexin V-FITC/PI staining based flow cytometric analysis (reference value: 1.15 %); type: functional
# HT-1080 [14] = test: Induction of apoptosis in human HT-1080 cells assessed as necrotic cells at 4 uM incubated for 48 hrs by Annexin V-FITC/PI staining based flow cytometric analysis (reference value: 0.45 %); type: functional
# HT-1080 [15] = test: Induction of apoptosis in human HT-1080 cells assessed as early apoptotic cells at 8 uM incubated for 48 hrs by Annexin V-FITC/PI staining based flow cytometric analysis (reference value: 2.33 %); type: functional
# HT-1080 [16] = test: Induction of apoptosis in human HT-1080 cells assessed as necrotic cells at 6 uM incubated for 12 hrs by Annexin V-FITC/PI staining based flow cytometric analysis (reference value: 0.38 %); type: functional
# HT-1080 [17] = test: Induction of apoptosis in human HT-1080 cells assessed as viable cells at 6 uM incubated for 24 hrs by Annexin V-FITC/PI staining based flow cytometric analysis (reference value: 96.65 %); type: functional; details: read-out: Activity
# HT-1080 [18] = test: Induction of apoptosis in human HT-1080 cells assessed as viable cells at 6 uM incubated for 48 hrs by Annexin V-FITC/PI staining based flow cytometric analysis (reference value: 96.65 %); type: functional; details: read-out: Activity
# HT-1080 [19] = test: Induction of apoptosis in human HT-1080 cells assessed as late apoptotic cells at 6 uM incubated for 48 hrs by Annexin V-FITC/PI staining based flow cytometric analysis (reference value: 0.60 %); type: functional
# HT-1080 [20] = test: Induction of apoptosis in human HT-1080 cells assessed as necrotic cells at 6 uM incubated for 48 hrs by Annexin V-FITC/PI staining based flow cytometric analysis (reference value: 0.38 %); type: functional
# HT-1080 [21] = test: Cell cycle arrest in human HT-1080 cells assessed as G2 phase cells at 8 uM incubated for 24 hrs by PI staining based flow cytometric analysis (reference value: 23.6 %); type: functional
# HT-1080 [22] = test: Cell cycle arrest in human HT-1080 cells assessed as G1 phase cells at 10 uM incubated for 24 hrs by PI staining based flow cytometric analysis (reference value: 58.1 %); type: functional
# HT-1080 [23] = test: Cell cycle arrest in human HT-1080 cells assessed as S phase cells at 10 uM incubated for 24 hrs by PI staining based flow cytometric analysis (reference value: 18.3 %); type: functional
# HT-1080 [24] = test: Cell cycle arrest in human HT-1080 cells assessed as G2 phase cells at 10 uM incubated for 24 hrs by PI staining based flow cytometric analysis (reference value: 23.6 %); type: functional
# HT-1080 [25] = test: Inhibition of cell migration in human HT-1080 cells incubated for 24 hrs by cell scratch assay; type: functional, cell-based; details: dose 1-3 µM
# [26] = Toxicity in Sprague-Dawley rat assessed as observable clinical signs at 0.5 mg/kg, iv measured after 24 hrs; type: organism-based; details: in vivo
# [27] = Clearance in Sprague-Dawley rat at 0.5 mg/kg, iv measured after 24 hrs by LC-MS/MS analysis; type: ADME, organism-based; details: in vivo
# [28] = AUC (0 to t) in Sprague-Dawley rat at 5 mg/kg, po measured after 24 hrs by LC-MS/MS analysis; type: ADME, organism-based; details: in vivo
# [29] = Clearance in Sprague-Dawley rat at 5 mg/kg, po measured after 24 hrs by LC-MS/MS analysis; type: ADME, organism-based; details: in vivo
# [30] = Oral bioavailability in Sprague-Dawley rat at 5 mg/kg measured after 24 hrs by LC-MS/MS analysis; type: ADME, organism-based; details: in vivo
# [31] = In vivo inhibition of IDH1 mutant in female nude mouse xenografted with human HT-1080 cells assessed as reduction in 2-HG levels in tumor at 20 mg/kg, ip administered twice at 1 hrs interval by resazurin fluorescence dye based Sigma MAK320-1 assay kit analysis relative to control; type: functional
# [32] = In vivo inhibition of IDH1 mutant in female nude mouse xenografted with human HT-1080 cells assessed as reduction in 2-HG levels in tumor at 40 mg/kg, ip administered twice at 1 hrs interval by resazurin fluorescence dye based Sigma MAK320-1 assay kit analysis relative to control; type: functional
# Sequence of Isocitrate dehydrogenase [NADP] cytoplasmic (Homo sapiens), O75874 [R132C] (O75874 whole entry R132C): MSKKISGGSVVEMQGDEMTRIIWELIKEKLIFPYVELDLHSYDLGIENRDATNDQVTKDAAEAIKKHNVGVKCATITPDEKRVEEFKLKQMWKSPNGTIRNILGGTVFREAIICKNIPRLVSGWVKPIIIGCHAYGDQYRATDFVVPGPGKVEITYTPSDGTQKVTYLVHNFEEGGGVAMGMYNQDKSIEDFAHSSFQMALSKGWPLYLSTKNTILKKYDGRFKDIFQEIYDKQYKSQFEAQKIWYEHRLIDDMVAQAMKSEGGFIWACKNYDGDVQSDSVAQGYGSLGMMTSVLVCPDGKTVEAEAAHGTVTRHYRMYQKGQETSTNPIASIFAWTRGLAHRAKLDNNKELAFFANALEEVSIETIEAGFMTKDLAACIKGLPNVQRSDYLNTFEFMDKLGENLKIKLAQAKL
# Sequence of Isocitrate dehydrogenase [NADP] cytoplasmic (Homo sapiens), O75874 [R132H] (O75874 whole entry R132H): as the sequence (O75874 whole entry R132C) above, with C132H counted along it
# Sequence of Isocitrate dehydrogenase [NADP] cytoplasmic (O75874 2-414 R132C limits assumed): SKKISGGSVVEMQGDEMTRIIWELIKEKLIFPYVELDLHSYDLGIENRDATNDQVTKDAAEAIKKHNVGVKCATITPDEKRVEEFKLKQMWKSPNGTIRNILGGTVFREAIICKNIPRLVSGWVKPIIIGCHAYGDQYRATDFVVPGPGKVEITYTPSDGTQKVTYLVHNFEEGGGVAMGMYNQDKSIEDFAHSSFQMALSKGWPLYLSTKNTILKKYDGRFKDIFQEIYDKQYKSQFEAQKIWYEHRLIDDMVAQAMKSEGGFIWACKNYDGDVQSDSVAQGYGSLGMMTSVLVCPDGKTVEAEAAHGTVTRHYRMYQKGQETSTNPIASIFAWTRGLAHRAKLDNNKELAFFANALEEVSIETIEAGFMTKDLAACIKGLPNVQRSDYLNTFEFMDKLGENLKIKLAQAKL
smiles,measurement,setting,value
COc1cc(O)c(-c2cc(-c3ccc(O)cc3)nc(N3CCNCC3)n2)cc1CC=C(C)C,inhibition,[1],> 100%
same,Activity,HT-1080 [2],32.3%
same,inhibition,[3],> 100%
same,inhibition,[4],65.9%
same,IC50,[5],95.7 nM
same,GC50,HT-1080 [6],1380 nM
same,GC50,U-87 MG,3480 nM
same,viability at 2 µM,HT-1080 [7],88.8%
same,Activity,HT-1080 [8],5.1%
same,Activity,HT-1080 [9],4.96%
same,Activity,HT-1080 [10],1.16%
same,viability at 4 µM,HT-1080 [11],83.7%
same,Activity,HT-1080 [12],4.48%
same,Activity,HT-1080 [13],9.67%
same,Activity,HT-1080 [14],2.13%
same,Activity,HT-1080 [15],7.82%
same,Activity,HT-1080 [16],4.99%
same,viability at 6 µM,HT-1080 [17],87.3%
same,viability at 6 µM,HT-1080 [18],80.8%
same,Activity,HT-1080 [19],6.57%
same,Activity,HT-1080 [20],1.35%
same,Activity,HT-1080 [21],15.9%
same,Activity,HT-1080 [22],45.4%
same,Activity,HT-1080 [23],51.6%
same,Activity,HT-1080 [24],3%
same,inhibition,HT-1080 [25],Dose-Dependent Effect
same,Activity,[26],Non-Toxic
same,clearance,[27],27.3 mL/min/kg
same,AUC(0-t) at 24 h,[28],370 ng·h/mL
same,CL/F,[29],168 mL/min/kg
same,bioavailability,[30],16.8%
same,inhibition in vivo at 20 mg/kg,[31],75%
same,inhibition in vivo at 40 mg/kg,[32],96%
